Patent publication US6177447A (Universiteit van Amsterdam, priority 1996, dated 2001)
Where two headings read alike, the source gives them in different places.

How the values were obtained:
glucosylceramidase [1] = target: T1, glucosylceramidase (Homo sapiens, UniProt Q9HCG7); assay: glucosylceramidase activity towards 4MU-b-glucoside in conduritol B-epoxide pre-treated membrane suspension from human spleen; conditions: for inhibition of glucosylceramidase, in words: comparison among N-alkyl derivatives
T1 sequence (Q9HCG7 1-927): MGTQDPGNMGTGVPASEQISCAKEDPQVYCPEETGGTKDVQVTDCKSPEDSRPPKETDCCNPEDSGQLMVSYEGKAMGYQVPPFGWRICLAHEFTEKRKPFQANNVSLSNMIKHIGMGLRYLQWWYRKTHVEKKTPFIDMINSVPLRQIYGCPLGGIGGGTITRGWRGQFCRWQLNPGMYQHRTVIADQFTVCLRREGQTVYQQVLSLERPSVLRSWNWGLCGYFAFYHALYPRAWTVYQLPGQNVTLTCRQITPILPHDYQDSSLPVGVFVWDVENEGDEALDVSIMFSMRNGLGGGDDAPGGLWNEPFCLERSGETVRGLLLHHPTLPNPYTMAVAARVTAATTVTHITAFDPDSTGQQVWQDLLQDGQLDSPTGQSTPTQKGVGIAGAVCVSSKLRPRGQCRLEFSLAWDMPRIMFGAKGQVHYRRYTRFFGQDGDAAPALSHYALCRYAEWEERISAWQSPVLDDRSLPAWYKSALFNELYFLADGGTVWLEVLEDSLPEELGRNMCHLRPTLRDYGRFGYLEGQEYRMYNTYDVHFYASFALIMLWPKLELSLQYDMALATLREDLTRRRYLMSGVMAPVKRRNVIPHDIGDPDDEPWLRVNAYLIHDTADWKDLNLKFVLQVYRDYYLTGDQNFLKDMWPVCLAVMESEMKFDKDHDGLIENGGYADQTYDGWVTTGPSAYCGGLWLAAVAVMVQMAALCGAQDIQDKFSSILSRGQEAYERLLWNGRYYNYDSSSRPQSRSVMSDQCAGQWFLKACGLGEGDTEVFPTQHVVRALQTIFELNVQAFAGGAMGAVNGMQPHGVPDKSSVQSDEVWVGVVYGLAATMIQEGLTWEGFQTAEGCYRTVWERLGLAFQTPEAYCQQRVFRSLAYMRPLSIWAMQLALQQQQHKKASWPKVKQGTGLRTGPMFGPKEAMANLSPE

lysosomal a-glucosidase = lysosomal a-glucosidase (Homo sapiens, UniProt P10253); assay: purified lysosomal a-glucosidase activity towards 4MU-a-glucoside; format: biochemical
glucocerebrosidase [2] = target: T2, glucocerebrosidase (Homo sapiens, UniProt P04062); assay: glucocerebrosidase activity in intact melanoma cells (4MU-b-glucoside, conduritol B-epoxide sensitive); format: cell-based; design: the hydrolysis of 4MU-b-glucoside by cultured melanoma cells; endogenous in cells
T2 sequence (P04062 40-536): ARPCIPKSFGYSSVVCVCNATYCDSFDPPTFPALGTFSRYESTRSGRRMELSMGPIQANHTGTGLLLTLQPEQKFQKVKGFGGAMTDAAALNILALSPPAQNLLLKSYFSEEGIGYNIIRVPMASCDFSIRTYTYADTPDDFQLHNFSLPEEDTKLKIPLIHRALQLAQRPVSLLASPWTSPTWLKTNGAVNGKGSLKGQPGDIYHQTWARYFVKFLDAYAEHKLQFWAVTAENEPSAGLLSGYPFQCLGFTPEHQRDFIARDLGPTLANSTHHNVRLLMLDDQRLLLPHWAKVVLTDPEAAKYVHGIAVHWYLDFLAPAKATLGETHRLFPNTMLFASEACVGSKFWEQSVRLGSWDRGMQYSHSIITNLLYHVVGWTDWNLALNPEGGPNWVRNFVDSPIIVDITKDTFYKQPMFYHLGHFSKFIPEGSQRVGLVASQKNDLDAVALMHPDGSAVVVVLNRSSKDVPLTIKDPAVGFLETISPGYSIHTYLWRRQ

glucocerebrosidase [3] = target: T2, glucocerebrosidase; assay: conduritol B-epoxide inhibitable glucocerebrosidase activity in membrane fraction from human spleen; format: biochemical; conditions: membrane suspension, 4MU-b-glucoside, pH 5.2; read-out: apparent Ki GLUCOCEREBROSIDASE MEMBRANES
[4] = target: T3, glucocerebrosidase (Ceredase) (Homo sapiens, UniProt P04062); assay: activity of soluble human placental glucocerebrosidase (Ceredase) towards 4MU-b-glucoside; format: biochemical; conditions: soluble enzyme, 0.25% sodium taurocholate, 0.1% Triton X-100, pH 5.2; read-out: apparent Ki GLUCOCEREBROSIDASE CEREDASE
T3 construct: purchased Genzyme Corp. Boston,USA; host or cells: human placenta
T3 sequence (P04062 40-536): T2 sequence (P04062 40-536)

glucosylceramidase [5] = target: T1, glucosylceramidase; assay: glucosylceramidase activity in intact melanoma cells (4MU-b-glucoside, conduritol B-epoxide insensitive); format: cell-based; design: endogenous in cells
chitotriosidase = chitotriosidase secretion by cultured macrophages; format: cell-based, human; conditions: Homo sapiens, Macrophage, 96 h, 4 days, relative to no inhibitor (100%)
[6] = intact melanoma cells, read-out: IC50 GLUCOCEREBROSIDASE
[7] = read-out: apparent Ki GLUCOSYLCERAMIDASE, membrane suspension, 4MU-b-glucoside, pH 5.2, competitive inhibition assumed
[8] = 4MU-a-glucoside, pH 4.0, read-out: apparent Ki A-GLUCOSIDASE
[9] = read-out: IC50 GLUCOSYLCERAMIDASE

| IC50 (glucocerebrosidase [2]; [6]) | Ki (lysosomal a-glucosidase; [8]) | IC50 (glucosylceramidase [5]; [9]) | Structure (SMILES) | Ki (glucosylceramidase [1]) | Ki (lysosomal a-glucosidase) | Ki (glucocerebrosidase [3]) | Ki [4] | Ki (glucosylceramidase [1]; [7]) | inhibition of lysosomal a-glucosidase, in words (lysosomal a-glucosidase) | also measured |
| --- | --- | --- | --- | --- | --- | --- | --- | --- | --- | --- |
|  |  |  | CCCCN1C[C@H](O)[C@@H](O)[C@H](O)[C@H]1CO [BUTYLDNJ, butyl-deoxynojirimycin] |  | 6.43 µM |  |  |  |  | activity at 0.5 µM (chitotriosidase; 0.5 uM): 68%; activity at 5 µM (chitotriosidase; 5 uM): 49%; activity at 50 µM (chitotriosidase; 50 uM): 28% |
| > 1 µM | 2.39 µM | 30 µM | CCCCC(=O)N1C[C@H](O)[C@@H](O)[C@H](O)[C@H]1CO [PENTANOYLDNJ, N-pentanoyl DNJ, reference compound] | 84 µM |  | 83 µM | 670 µM |  |  |  |
|  |  |  | CCCCCCN1C[C@H](O)[C@@H](O)[C@H](O)[C@H]1CO [N-hexyl-deoxynojirimycin, reference compound] |  |  |  |  |  |  | inhibition of glucosylceramidase, in words (glucosylceramidase [1]): less potent inhibitor |
| 5 µM | > 100 µM | 200 µM | O=C(CCCC(=O)N1C[C@H](O)[C@@H](O)[C@H](O)[C@H]1CO)OCC12CC3CC(CC(C3)C1)C2 [P4] |  |  | 3.2 µM | 19.7 µM | 461 µM | very poor inhibitors |  |
|  |  |  | CCCN1C[C@H](O)[C@@H](O)[C@H](O)[C@H]1CO [PROPYLDNJ, N-propyl DNJ, reference compound] | 0.123 µM | 9.24 µM | 332 µM | 546 µM |  |  | IC50 (glucocerebrosidase [2]): > 1 µM; IC50 (glucosylceramidase [5]; IC50 GLUCOSYLCERAMIDASE): 0.65 µM |
| 8 µM | > 100 µM | 200 µM | O=C(CCCC(=O)N1C[C@H](O)[C@@H](O)[C@H](O)[C@H]1CO)OC12CC3CC(CC(C3)C1)C2 [P11] |  |  | 4.1 µM | 113 µM | 306 µM | very poor inhibitors |  |
|  |  |  | O=C(CCCC(=O)N1C[C@H](O)[C@@H](O)[C@H](O)[C@H]1CO)Oc1cc2ccccc2c2ccccc12 [P16] |  |  | 0.44 µM | 11.6 µM |  | very poor inhibitors | Ki (lysosomal a-glucosidase; read-out: apparent Ki A-GLUCOSIDASE, 4MU-a-glucoside, pH 4.0): > 100 µM; IC50 (glucocerebrosidase [2]; read-out: IC50 GLUCOCEREBROSIDASE, intact melanoma cells): > 1 µM |

| Structure (SMILES) | IC50 (glucocerebrosidase [2]; [6]) | Ki (lysosomal a-glucosidase; [8]) | IC50 (glucosylceramidase [5]; [9]) | Ki (glucosylceramidase [1]) | Ki (lysosomal a-glucosidase) | Ki (glucocerebrosidase [3]) | Ki [4] | Ki (glucosylceramidase [1]; [7]) | inhibition of lysosomal a-glucosidase, in words (lysosomal a-glucosidase) | also measured |
| --- | --- | --- | --- | --- | --- | --- | --- | --- | --- | --- |
| CCCCCN1C[C@H](O)[C@@H](O)[C@H](O)[C@H]1CO [PENTYLDNJ, N-pentyl DNJ, reference compound] | > 1 µM |  |  | 0.038 µM | 3.74 µM | 8.5 µM | 249 µM |  |  | inhibition of glucosylceramidase, in words (glucosylceramidase [1]): Optimal inhibition; IC50 (glucosylceramidase [5]; IC50 GLUCOSYLCERAMIDASE): 0.15 µM |
| CC(C)CCC[C@@H](C)[C@H]1CC[C@H]2[C@@H]3CC[C@H]4C[C@@H](OC(=O)CCCC(=O)N5C[C@H](O)[C@@H](O)[C@H](O)[C@H]5CO)CC[C@]4(C)[C@H]3CC[C@]12C [P13] |  | > 100 µM |  |  |  | > 100 µM | 11.2 µM | > 100 µM | very poor inhibitors |  |
| CC(C)CCC[C@@H](C)[C@H]1CC[C@H]2[C@@H]3CC=C4C[C@@H](OC(=O)CCCC(=O)N5C[C@H](O)[C@@H](O)[C@H](O)[C@H]5CO)CC[C@]4(C)[C@H]3CC[C@]12C [P9] |  | > 100 µM |  |  |  | > 100 µM | 51.6 µM | > 100 µM | very poor inhibitors |  |
